Experimental data as given in patent US20110045100A1, “Antimalarial Quinolines and Methods of Use Thereof” (GEORGETOWN UNIVERSITY, priority 2008, published 2011).
Read-outs that look alike come from different tables or passages of the source.

How the values were obtained:
μ-oxo dimeric heme = experiment: Heme affinity measurement, μ-oxo dimeric heme; format: binding; conditions: aqueous solution
Description: 1.5 mL cuvettes containing freshly prepared samples of 4.8 μM heme were titrated with increasing concentrations (0-50 μM) of drug. Following each addition, the sample was mixed and heme absorbance then recorded at 402 nm. Control experiments were performed by titrating 4.8 μM heme with similar volumes of solvent and no drug present. To measure affinity for μ-oxo dimeric heme, the procedure was similar except hemin was first converted to dimeric form in mild alkaline solution, followed by titration to pH 7.5 using Hepes buffer. The absorbance peak analysis was done using Microsoft excel and Ka were extracted from the ΔAbs402 plots via Scatchard analysis using Microsoft Excel and Sigma plot 9.0.1 software.

monomeric heme = experiment: Heme affinity measurement, monomeric heme; format: binding; conditions: acidic 40% DMSO
Description: To test whether binding to Hz precursors is also altered for the 4S and 4O derivatives, binding constants were measured as previously described for both μ-oxo dimeric and monomeric heme (FIG. 25). […] J. Am. Chem. Soc. 1988, 110, 4391-4395; Egan, T. J.; Mavuso, W. W.; Ross, D. C.; Marques, H. M. Thermodynamic factors controlling the interaction of quinoline antimalarial drugs with ferriprotoporphyrin IX. J. Inorg. Biochem. 1997, 68, 137-145; and Egan, T. J.; Ncokazi, K. K. Effects of solvent composition and ionic strength on the interaction of quinoline antimalarials with ferriprotoporphyrin IX. J. Inorg. Biochem. 2004, 98, 144-152. Due to the instability of monomeric heme in aqueous solution, the affinity to monomer measured by conventional absorbance experiments can only be estimated using 40% DMSO in water as solvent. Egan, T. J.; Ncokazi, K. K. Effects of solvent composition and ionic strength on the interaction of quinoline antimalarials with ferriprotoporphyrin IX. J. Inorg. Biochem. 2004, 98, 144-152. At appropriately acidic solution pH (≦5.0) FPIX heme is primarily monomeric, whereas at pH 7, appreciable dimer is formed. As shown (FIG. 25), CQ and compounds 88, 93, and 98 all have poor affinity for monomeric heme in acidic 40% DMSO. To further test if CQ interacts with monomeric heme, T1 measurements of the CQ protons were made with samples containing 10 mM CQ and 2 mM hemin chloride in 40% DMSO at pH 5.0. Although the lines are broadened in this solution due to paramagnetic susceptibility, the measured T1's indicate only weak paramagnetic relaxation. For example, the measured T1 for CQ proton 1 in this sample is 0.70 s, whereas at pH 7.0 the T1 for the same proton is 0.039 s.
To measure affinity for monomeric heme, 1.2 mM stock solutions of hemin (sodium salt from Sigma-Aldrich) were prepared in DMSO and stored as […] aliquots. 4.8 μM working solutions were prepared in 40% DMSO/phosphate buffer (fresh stocks prepared daily). Stock solutions of CQ and CQ analogues (diphosphate or dihydrochloride salts) were prepared in 40% DMSO/phosphate buffer and used for the titration experiments (all drugs dilutions were prepared in the same buffer).
1.5 mL cuvettes containing freshly prepared samples of 4.8 μM heme were titrated with increasing concentrations (0-50 μM) of drug. Following each addition, the sample was mixed and heme absorbance then recorded at 402 nm. Control experiments were performed by titrating 4.8 μM heme with similar volumes of solvent and no drug present. […] The absorbance peak analysis was done using Microsoft excel and Ka were extracted from the ΔAbs402 plots via Scatchard analysis using Microsoft Excel and Sigma plot 9.0.1 software.

[1] = pKa determination by acid/base titration; format: physicochemical; conditions: distilled water; measured; read-out: quinolyl N pKa
Description: SPARC pKa calculator is an online tool developed at the University of Georgia by S. W. Karickhoff, L. A. Carreira and S. H. Hilal. Experimental pKa were determined using an Accumet AB15 pH meter and a calomel electrode. 10 mM solutions of the drugs (as dibasic salts) were made in distilled H2O and titrated at room temperature (23.0±2.0° C.) using 0.1 M NaOH. Titration plots were generated and pKa's extracted via inflection points from the second derivative plots; (Δ^2pH/ΔV^2) vs. V, where V represents the volume of the titrant added and ΔV is the volume increment.

hemozoin (Hz) formation = experiment: Quantification of in vitro Hz formation inhibition; format: biochemical
Description: A stock solution of 5 mM hemin (Fluka) in 0.1M NaOH was prepared and stored as small aliquots at -20° C. Fresh aliquots were thawed daily to room temperature before use. Lecithin stock solutions were prepared by dissolving in distilled water to 10 mg/ml and similarly stored. 0.5 M propionate was used to buffer experiments in the pH range 5.2-5.6. The assay mixture (1 mL volumes) contained: 200 μL lecithin solution ([…] final) 20 μL hematin (100 μM final concentration) 20 μ[…] propionate buffer (X) μL drug (dependant on the concentration required 0-1000 μM). The addition sequence involved first adding the lecithin followed by heme, HCl, propionate buffer and finally the drug. Each sample was prepared in triplicate. Following addition of the reagents the samples were incubated at 37° C. with constant shaking for 18 h. After 18 h the assay was stopped by spinning the samples at 13,200 rpm for 10 minutes followed by carefully aspirating off the supernatant. The pellet was then resuspended in 50 mM bicarbonate buffer pH 9.0 (1 mL) and gently shaken at room temperature for 30 minutes to dissolve uncrystallized heme. The samples were then centrifuged as above and the supernatant removed. […] The samples were then dissolved in 0.1M NaOH to solubilize β-hematin to free heme and β-hematin formed was then quantified via heme absorbance at 402 nm. Calibration curves were prepared by titrating increasing amounts of heme in the same solvent vs. absorbance at 402 nm.

[2] = tested on: Dd2 (chloroquine resistant strain of P. falciparum); experiment: SYBR Green I antiplasmodial assay, strain Dd2; format: cell-based, Plasmodium falciparum
From the text: (§1) Bennett T. N.; Paguio, M.; Gligorijevic, B.; Seudieu, C.; Kosar, A. D.; Davidson, E.; Roepe, P. D. Novel, rapid, and inexpensive cell-based quantification of antimalarial drug efficacy. Antimicrob. Agents Chemother. 2004, 48, 1807-1810; Smilkstein, M.; Sriwilaijaroen, N.; Kelly, J. X.; Wilairat, P.; Riscoe, M. Simple and inexpensive fluorescence-based technique for high-throughput antimalarial drug screening. Antimicrob. Agents Chemother. 2004, 48, 1803-1806; and Johnson, J. D.; Dennull, R. A.; Gerena, L.; Lopez-Sanchez, M.; Roncal, N. E.; Waters, N.C. Assessment and continued validation of the malaria SYBR green I-based fluorescence assay for use in malaria drug screening. Antimicrob. Agents Chemother. 2007, 51, 1926-1933. […] Drake, N. L.; Creech, H. J.; Garman, J. A.; Haywood, S. T.; Peck, R. M.; van Hook, J. O.; Walton, E. Synthetic antimalrials. The preparation of certain 4-aminoquinolines. J. Am. Chem. Soc. […] Trans. R. Soc. Trop. Med. Hyg. […] J. Parasitol. 1983, 69, 97-105. The selectivity index provides a quantitative measure of the antimalarial activity against CQR strains relative to that against sensitive strains and thus indicates promising drug discovery leads. […] This can be combined with the introduction of a third basic amino function which should further favor accumulation of the drug within the acidic food vacuole of the parasite.
The antiplasmodial activity of these compounds was measured versus a CQS (HB3) and a CQR (Dd2) strain using a standardized, inexpensive assay based on SYBR Green I intercalation. Bennett T. N.; Paguio, M.; Gligorijevic, B.; Seudieu, C.; Kosar, A. D.; Davidson, E.; Roepe, P. D. Antimicrob. Agents Chemother. 2004, 48, 1807-1810; Smilkstein, M.; Sriwilaijaroen, N.; Kelly, J. X.; Wilairat, P.; Riscoe, M. Antimicrob. Agents Chemother. 2004, 48, 1803-1806; and Johnson, J. D.; Dennull, R. A.; Gerena, L.; Lopez-Sanchez, M.; Roncal, N. E.; Waters, N.C. Antimicrob. Agents Chemother. 2007, 51, 1926-1933. […] De, D.; Krogstad, F. M.; Cogswell, F. B.; Krogstad, D. J. Am. J. Trop. Med. Hyg. 1996, 55, 579-583. […] The basic tertiary amino function in the side chain is commonly believed to be crucial for the accumulation of the drug within the acidic food DV.
(§2) Drug activities were assessed and IC50 were quantified essentially as described previously. Delarue, S.; Girault, S.; Maes, L.; Debreu-Fontaine, M. A.; Labaeid, M.; Grellier, P.; Sergheraert, C. Synthesis and in vitro and in vivo antimalarial activity of new 4-anilinoquinolines. J. Med. Chem. 2001, 44, 2827-2833; and O'Neill, P. M.; Willock, D. J.; Hawley, S. R.; Bray, P. G.; Storr, R. C.; Ward, S. A.; Park, B. K. Synthesis, antimalarial activity, and molecular modeling of tebuquine analogues. J. Med. Chem. 1997, 40, 437-448. The aminoquinolines were diluted using complete media under sterile conditions and plated in a 96 well plate format. Sorbitol synchronized cultures were utilized with >95% of the parasites at the ring stage. Cultures were diluted to give a working stock of 0.5% parasitemia and 2% hematocrit (final hematocrit 1% & 0.5% Parasitemia). The plates were incubated for 72 h at 37° C. After 72 h, 50 μL of 10×SYBR green I dye was added to each well, and the plate was incubated for 1 h at 37° C. Fluorescence was measured at 530 nm (490 nm excitation) using a spectra geminiEM plate reader. Data analysis was performed using sigma plot 9.0 software after downloading data in Excel format.

[3] = tested on: HB3 (chloroquine sensitive strain of P. falciparum); experiment: SYBR Green I antiplasmodial assay, strain HB3; format: cell-based, Plasmodium falciparum; conditions: CQS strain HB3; read-out: IC50 against HB3
From the text: Bennett T. N.; Paguio, M.; Gligorijevic, B.; Seudieu, C.; Kosar, A. D.; Davidson, E.; Roepe, P. D. Novel, rapid, and inexpensive cell-based quantification of antimalarial drug efficacy. Antimicrob. Agents Chemother. 2004, 48, 1807-1810; Smilkstein, M.; Sriwilaijaroen, N.; Kelly, J. X.; Wilairat, P.; Riscoe, M. Simple and inexpensive fluorescence-based technique for high-throughput antimalarial drug screening. Antimicrob. Agents Chemother. 2004, 48, 1803-1806; and Johnson, J. D.; Dennull, R. A.; Gerena, L.; Lopez-Sanchez, M.; Roncal, N. E.; Waters, N.C. Assessment and continued validation of the malaria SYBR green I-based fluorescence assay for use in malaria drug screening. Antimicrob. Agents Chemother. 2007, 51, 1926-1933. […] The selectivity index provides a quantitative measure of the antimalarial activity against CQR strains relative to that against sensitive strains and thus indicates promising drug discovery leads. […]
The antiplasmodial activity of these compounds was measured versus a CQS (HB3) and a CQR (Dd2) strain using a standardized, inexpensive assay based on SYBR Green I intercalation. […]
Drug activities were assessed and IC50 were quantified essentially as described previously. […] Fluorescence was measured at 530 nm (490 nm excitation) using a spectra geminiEM plate reader. […]

[4] = tested on: FCB (CQR strain of P. falciparum); experiment: SYBR Green I antiplasmodial assay, strain FCB; format: cell-based, Plasmodium falciparum; conditions: Plasmodium falciparum, read-out: IC50 for FCB
From the text: as §1, §2

[5] = tested on: CQS (HB3, GCO3) and CQR (Dd2, FCB) strains of P. falciparum; experiment: SYBR Green I antiplasmodial assay, several CQS and CQR strains; format: cell-based, Plasmodium falciparum
From the text: as §1
Bennett T. N.; Paguio, M.; Gligorijevic, B.; Seudieu, C.; Kosar, A. D.; Davidson, E.; Roepe, P. D. Novel, rapid, and inexpensive cell-based quantification of antimalarial drug efficacy. Antimicrob. Agents Chemother. 2004, 48, 1807-1810; Smilkstein, M.; Sriwilaijaroen, N.; Kelly, J. X.; Wilairat, P.; Riscoe, M. Simple and inexpensive fluorescence-based technique for high-throughput antimalarial drug screening. Antimicrob. Agents Chemother. 2004, 48, 1803-1806; and Johnson, J. D.; Dennull, R. A.; Gerena, L.; Lopez-Sanchez, M.; Roncal, N. E.; Waters, N.C. Assessment and continued validation of the malaria SYBR green I-based fluorescence assay for use in malaria drug screening. Antimicrob. Agents Chemother. 2007, 51, 1926-1933.
Drug activities were assessed and IC50 were quantified essentially as described previously. Delarue, S.; Girault, S.; Maes, L.; Debreu-Fontaine, M. A.; Labaeid, M.; Grellier, P.; Sergheraert, C. Synthesis and in vitro and in vivo antimalarial activity of new 4-anilinoquinolines. J. Med. Chem. 2001, 44, 2827-2833; and O'Neill, P. M.; Willock, D. J.; Hawley, S. R.; Bray, P. G.; Storr, R. C.; Ward, S. A.; Park, B. K. Synthesis, antimalarial activity, and molecular modeling of tebuquine analogues. J. Med. Chem. 1997, 40, 437-448.

With `CCN(CC)CCCCNc1ccnc2cc(Cl)ccc12` [compound 88, N-(7-Chloro-4-quinolyl)-N′,N′-diethyl-1,4-diaminobutane] the “affinity (association constant Ka) vs. μ-oxo dimer” value (μ-oxo dimeric heme) was “quite similar” and the “affinity for monomeric heme” value (monomeric heme) was “poor affinity”.

In the case of `CCN(CC)CCCCSc1ccnc2cc(Cl)ccc12` [compound 98, S-(7-Chloro-4-quinolyl)-4-(N,N-diethylamino)butanethiol], the “affinity (association constant Ka) vs. μ-oxo dimer” value (μ-oxo dimeric heme) is reported as “quite similar”, the “affinity for monomeric heme” value (monomeric heme) is reported as “poor affinity” and the pKa [1] is reported as 4.1. For the same compound, the “ability to inhibit Hz formation vs. that measured for CQ and 8” value (hemozoin (Hz) formation; FIG. 26) was “significantly lower”.

With `CCN(CCNc1ccnc2cc(Cl)ccc12)CCNS(=O)(=O)c1cccc2c(N(C)C)cccc12` [compound 23] the IC50 ([2]; CQR strain Dd2, read-out: IC50 against Dd2) was 22.7 nM, the “activity against the CQ resistant strain Dd2 in comparison with CQ” value ([2]; compared with CQ) was “significantly more potent” and the IC50 [3] was 17.5 nM.

With `CCN(CC)CCCC(C)Nc1ccnc2cc(Cl)ccc12` (stereo not drawn) [CQ, chloroquine, reference compound] the IC50 ([2]; Plasmodium falciparum, DD2, read-out: IC50 against Dd2) was 140 nM, the IC50 [4] was 170 nM and the “affinity for monomeric heme” value (monomeric heme) was “poor affinity”.

With `CCN(CC)CCCC(CCCN(CC)CC)Oc1ccnc2cc(Cl)ccc12` [compound 102, 7-Chloro-4-(1′,7′-bis(diethylamino)-4′-heptoxy)quinoline] the “activity vs. both CQR and CQS strains relative to 93” value ([5]; FIG. 23) was “improved activity”, the “fold lower IC50 relative to 98” value ([5]; strains Dd2 and FCB) was 10 fold and the “inhibition of Hz formation relative to monobasic 4O derivative 13” value (hemozoin (Hz) formation) was “more potent inhibitor of Hz formation”.
